In data set [1] the target is T1, Prostaglandin G/H synthase 1 (Ovis aries, UniProt P05979).
T1 sequence (P05979 whole entry): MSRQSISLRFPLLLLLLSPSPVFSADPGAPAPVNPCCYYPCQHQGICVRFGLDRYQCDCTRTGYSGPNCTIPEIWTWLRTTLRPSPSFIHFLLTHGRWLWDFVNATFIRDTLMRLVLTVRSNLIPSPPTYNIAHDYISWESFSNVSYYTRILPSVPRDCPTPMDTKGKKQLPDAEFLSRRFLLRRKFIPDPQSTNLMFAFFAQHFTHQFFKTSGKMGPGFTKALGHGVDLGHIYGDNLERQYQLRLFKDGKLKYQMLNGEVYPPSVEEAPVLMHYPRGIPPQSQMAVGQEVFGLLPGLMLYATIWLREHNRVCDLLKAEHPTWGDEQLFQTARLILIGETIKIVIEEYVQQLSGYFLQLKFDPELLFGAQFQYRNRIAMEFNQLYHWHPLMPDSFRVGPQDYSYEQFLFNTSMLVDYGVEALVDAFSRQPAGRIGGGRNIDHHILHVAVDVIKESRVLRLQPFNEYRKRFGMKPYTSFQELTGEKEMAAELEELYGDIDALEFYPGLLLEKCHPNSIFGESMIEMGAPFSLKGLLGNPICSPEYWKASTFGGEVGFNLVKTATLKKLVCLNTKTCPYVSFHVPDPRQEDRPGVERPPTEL
Kind of data set: Inhibition of ovine COX1 using arachidonic acid as substrate preincubated for 5 mins followed by substrate addition measured after 2 mins by enzyme immunoassay.

Data set [2] has as its system Rattus norvegicus. Kind of data set: Anti-inflammatory activity in Wistar albino rat assessed as inhibition of carragenan-induced paw edema thickness at 50 mg/kg, po measured after 1 hr relative to control. In kind it is functional.
For data set [3], the system named is Rattus norvegicus. Kind of data set: Anti-inflammatory activity in Wistar albino rat assessed as inhibition of carragenan-induced paw edema thickness at 50 mg/kg, po measured after 3 hrs relative to control. Type of data set: functional.
The subject of data set [4] is Rattus norvegicus. Kind of data set: Anti-inflammatory activity in Wistar albino rat assessed as inhibition of carragenan-induced paw edema thickness at 50 mg/kg, po measured after 5 hrs relative to control. In kind it is functional.
In data set [5] the test system is Rattus norvegicus. The experiment in a line: Ulcerogenicity in Wistar albino rat model of carragenan-induced paw edema assessed as blood vessel dilation in sub-mucosa at 50 mg/kg, po by hematoxylin and eosin staining based histopathological analysis. Type of data set: toxicity, organism-based. Conditions: in vivo.
Data set [6] concerns Rattus norvegicus. Kind of data set: Ulcerogenicity in Wistar albino rat model of carragenan-induced paw edema assessed as degenrative changes with necrotic changes in gastric mucosa at 50 mg/kg, po by hematoxylin and eosin staining based histopathological analysis. Type of data set: toxicity, organism-based. Conditions: in vivo.
In data set [7] the test system is Rattus norvegicus. Kind of data set: Ulcerogenicity in Wistar albino rat model of carragenan-induced paw edema assessed as leucocytic infiltration in sub mucosa at 50 mg/kg, po by hematoxylin and eosin staining based histopathological analysis. Type of data set: toxicity, organism-based. The settings on record: in vivo.
In data set [8] the test system is Rattus norvegicus. Kind of data set: Ulcerogenicity in Wistar albino rat model of carragenan-induced paw edema assessed as hyalinosis and coagulative necrosis of muscular layer in stomach at 50 mg/kg, po by hematoxylin and eosin staining based histopathological analysis. In kind it is toxicity, organism-based. Conditions: in vivo.
For data set [9], the system named is Rattus norvegicus. Kind of data set: Ulcerogenicity in Wistar albino rat model of carragenan-induced paw edema assessed as blood vessel congestion with edema in sub-mucosa at 50 mg/kg, po by hematoxylin and eosin staining based histopathological analysis. The settings on record: in vivo. In kind it is toxicity, organism-based.
The test system of data set [10] is Rattus norvegicus. The experiment in a line: Ulcerogenicity in Wistar albino rat model of carragenan-induced paw edema assessed as corrugations of muscular layer in stomach at 50 mg/kg, po by hematoxylin and eosin staining based histopathological analysis. In kind it is toxicity, organism-based. The settings on record: in vivo.

Take `c1cc(-c2ccc(Nc3nc(N4CCOCC4)nc(N4CCOCC4)n3)cc2)[nH]n1`: the IC50 (usually the concentration that inhibits the measured activity by half) in data set [1] came to 5.26 µM.

Consider `c1cc(-c2ccc(Nc3nc(N4CCCCC4)nc(N4CCCCC4)n3)cc2)on1`, for which the inhibition in vivo (commonly the relative decrease from the control value, in per cent) at 50 mg/kg was 51% with Rattus norvegicus [2], 26% with Rattus norvegicus [3] and 25% in the data set on Rattus norvegicus [4]. This compound also had an IC50 in data set [1] of 7.23 µM.

In [1], `CC(=O)c1ccc(Nc2nc(N3CCCCC3)nc(N3CCCCC3)n2)cc1` showed a concentration for half-maximal inhibition (IC50) of 8.23 µM.

On to `CC(=O)c1ccc(Nc2nc(N3CCOCC3)nc(N3CCOCC3)n2)cc1`, for which the inhibition in vivo at 50 mg/kg in the data set with Rattus norvegicus [2] came out at 21%; in the data set on Rattus norvegicus [3], 8%; in the data set on Rattus norvegicus [4] it was 0%. The compound further had a 50% inhibitory concentration (IC50) in data set [1] of 5.93 µM.

On to `COc1ccc2c(c1)c(CC(=O)O)c(C)n2C(=O)c1ccc(Cl)cc1` [INDOMETHACIN], for which the Activity result in the data set with Rattus norvegicus [5], in the data set on Rattus norvegicus [6], in the data set on Rattus norvegicus [7] and in the data set on Rattus norvegicus [8] was “Toxic” each time.

For `COc1cc(/C=C/C(=O)c2ccc(Nc3nc(N4CCOCC4)nc(N4CCOCC4)n3)cc2)cc(OC)c1OC`, the inhibition in vivo at 50 mg/kg in the data set with Rattus norvegicus [2] worked out at 58%; in the data set on Rattus norvegicus [3], 18%; in the data set on Rattus norvegicus [4] it was 15%. The Activity result in the data set on Rattus norvegicus [6] is on record as “Non-Toxic”; in the data set with Rattus norvegicus [9], “Toxic”; with Rattus norvegicus [7], “Non-Toxic”; with Rattus norvegicus [8], “Non-Toxic”. The compound also gave an IC50 in [1] of 4.65 µM.

With `CN(C)/C=C/C(=O)c1ccc(Nc2nc(N3CCOCC3)nc(N3CCOCC3)n2)cc1`, the Activity entry in the data set with Rattus norvegicus [6], in the data set on Rattus norvegicus [7] and in the data set with Rattus norvegicus [8] was “Toxic” throughout. This compound also yielded an IC50 in data set [1] of 3.98 µM.

Turning to `c1cc(-c2ccc(Nc3nc(N4CCOCC4)nc(N4CCOCC4)n3)cc2)on1`, the half-inhibitory concentration (IC50) in [1] came out at 4.33 µM.

As for `c1ccc(-n2nccc2-c2ccc(Nc3nc(N4CCCCC4)nc(N4CCCCC4)n3)cc2)cc1`, the inhibition in vivo at 50 mg/kg came to 32% in the data set with Rattus norvegicus [2], 18% in the data set on Rattus norvegicus [3] and 2% with Rattus norvegicus [4]. In data set [1], this compound showed an IC50 of 6.42 µM.

As for `CS(=O)(=O)c1ccc(-n2nccc2-c2ccc(Nc3nc(N4CCCCC4)nc(N4CCCCC4)n3)cc2)cc1`, the inhibition in vivo at 50 mg/kg in the data set with Rattus norvegicus [2] is 36%; with Rattus norvegicus [3] it was 38%; in the data set with Rattus norvegicus [4], 20%. Also, the midpoint of inhibition in data set [1], the IC50, lay at 7.98 µM.

Consider `CN(C)/C=C/C(=O)c1ccc(Nc2nc(N3CCCCC3)nc(N3CCCCC3)n2)cc1`, for which the results for the inhibition in vivo at 50 mg/kg with Rattus norvegicus [2], in the data set with Rattus norvegicus [3] and in the data set with Rattus norvegicus [4] were 19%, 14% and 20%, respectively. In data set [1], this compound displayed an IC50 of 6.85 µM.

For the compound `CS(=O)(=O)c1ccc(-n2nccc2-c2ccc(Nc3nc(N4CCOCC4)nc(N4CCOCC4)n3)cc2)cc1`, the Activity entry in the data set on Rattus norvegicus [6] and in the data set with Rattus norvegicus [8] was “Non-Toxic” throughout. For the same compound, half-maximal inhibition in data set [1] (IC50) was put at 3.87 µM.

`COc1cc(C2CC(c3ccc(Nc4nc(N5CCOCC5)nc(N5CCOCC5)n4)cc3)=NN2C(C)=O)cc(OC)c1OC` (stereo unspecified): the concentration for half-maximal inhibition (IC50) in [1] stood at 8.61 µM.

`COc1cc(/C=C/C(=O)c2ccc(Nc3nc(N4CCCCC4)nc(N4CCCCC4)n3)cc2)cc(OC)c1OC` yielded an IC50 in [1] of 7.25 µM.

On to `COc1cc(C2CC(c3ccc(Nc4nc(N5CCCCC5)nc(N5CCCCC5)n4)cc3)=NN2C(C)=O)cc(OC)c1OC` (stereo unspecified), for which the inhibition in vivo at 50 mg/kg is 45% with Rattus norvegicus [2], 34% in the data set with Rattus norvegicus [3] and 2% in the data set with Rattus norvegicus [4]. Also, the Activity entry in the data set with Rattus norvegicus [6] and with Rattus norvegicus [7] was “Toxic” each time. In data set [1], this compound gave an IC50 of 3.52 µM.

On to `c1cc(-c2ccc(Nc3nc(N4CCCCC4)nc(N4CCCCC4)n3)cc2)[nH]n1`, for which the inhibition in vivo at 50 mg/kg stood at 58% in the data set with Rattus norvegicus [2], 24% in the data set on Rattus norvegicus [3] and 5% with Rattus norvegicus [4]. This compound showed a 50% inhibitory concentration (IC50) in [1] of 4.95 µM.

For `c1ccc(-n2nccc2-c2ccc(Nc3nc(N4CCOCC4)nc(N4CCOCC4)n3)cc2)cc1`, the Activity entry with Rattus norvegicus [6], in the data set on Rattus norvegicus [9], in the data set on Rattus norvegicus [7] and with Rattus norvegicus [8] was “Toxic” in each case. The same compound displayed an IC50 in data set [1] of 4.99 µM.

As for `Cc1ccc(-c2cc(C(F)(F)F)nn2-c2ccc(S(N)(=O)=O)cc2)cc1` [CELECOXIB], the inhibition in vivo at 50 mg/kg in the data set with Rattus norvegicus [2] turned out to be 77%; with Rattus norvegicus [3], 72%; in the data set with Rattus norvegicus [4], 20%. For the same compound, the Activity result in the data set with Rattus norvegicus [5], in the data set with Rattus norvegicus [6], in the data set with Rattus norvegicus [10] and in the data set on Rattus norvegicus [7] was “Toxic” throughout.

(Values after ChEMBL document CHEMBL3992513, “Synthesis, anti-inflammatory, cyclooxygenases inhibitions assays and histopathological study of poly-substituted 1,3,5-triazines: Confirmation of regiospecific pyrazole cyclization by HMBC” (Eur J Med Chem, 2017).)
